Assay results as given in the supplement of paper PMC13380429.

Assays:
Settings in all cases: 72 h
Caco-2 [1] = assay: cell viability relative to DMSO; higher = less toxic
Calu-3 [2] = assay: as above
HepG2 [3] = assay: as above
U2OS [4] = assay: as above
Vero E6 [5] = assay: as above
Caco-2 [6] = assay: relative viability EC50 (midpoint between 100% and the lowest measured viability); higher = less toxic
Calu-3 [7] = assay: as above
HepG2 [8] = assay: as above
U2OS [9] = assay: as above
Vero E6 [10] = assay: as above
Caco-2 [11] = assay: drug sensitivity score (DSS) for viability; higher = more toxic; extreme values may be limits of the assay
Calu-3 [12] = assay: as above
HepG2 [13] = assay: as above
U2OS [14] = assay: as above
Vero E6 [15] = assay: as above

Compound | cell viability (Caco-2 [1]; 1 nM) [%] | cell viability (Caco-2 [1]; 10 nM) [%] | cell viability (Caco-2 [1]; 100 nM) [%] | cell viability (Caco-2 [1]; 1000 nM) [%] | cell viability (Caco-2 [1]; 10000 nM) [%] | cell viability (Calu-3 [2]; 1 nM) [%] | cell viability (Calu-3 [2]; 10 nM) [%] | cell viability (Calu-3 [2]; 100 nM) [%] | cell viability (Calu-3 [2]; 1000 nM) [%] | cell viability (Calu-3 [2]; 10000 nM) [%] | cell viability (HepG2 [3]; 1 nM) [%] | cell viability (HepG2 [3]; 10 nM) [%] | cell viability (HepG2 [3]; 100 nM) [%] | cell viability (HepG2 [3]; 1000 nM) [%] | cell viability (HepG2 [3]; 10000 nM) [%] | cell viability (U2OS [4]; 1 nM) [%] | cell viability (U2OS [4]; 10 nM) [%] | cell viability (U2OS [4]; 100 nM) [%] | cell viability (U2OS [4]; 1000 nM) [%] | cell viability (U2OS [4]; 10000 nM) [%] | cell viability (Vero E6 [5]; 1 nM) [%] | cell viability (Vero E6 [5]; 10 nM) [%] | cell viability (Vero E6 [5]; 100 nM) [%] | cell viability (Vero E6 [5]; 1000 nM) [%] | cell viability (Vero E6 [5]; 10000 nM) [%] | relative viability EC50 (Caco-2 [6]) [µM] | relative viability EC50 (Calu-3 [7]) [µM] | relative viability EC50 (HepG2 [8]) [µM] | relative viability EC50 (U2OS [9]) [µM] | relative viability EC50 (Vero E6 [10]) [µM] | drug sensitivity score (Caco-2 [11]) | drug sensitivity score (Calu-3 [12]) | drug sensitivity score (HepG2 [13]) | drug sensitivity score (U2OS [14]) | drug sensitivity score (Vero E6 [15])
CC(C)[C@@H]1C(=O)N(S(C)(=O)=O)[C@@H]2CCN(C(=O)/C=C/CN3CCCCC3)[C@H]21 | 110 | 94.3 | 94.4 | 97.6 | 94.4 | 95.9 | 95.4 | 102 | 103 | 100 | 92.2 | 92.6 | 104 | 104 | 85.3 | 101 | 98.8 | 103 | 99.1 | 101 | 97.2 | 102 | 93.4 | 98.6 | 91.4 | > 10 | > 10 | > 10 | > 10 | > 10 | 0 | 0 | 0.1 | 0 | 0
CC1(C)C(=O)N(c2ccc(C#N)c(C(F)(F)F)c2)C(=O)N1CCCCO | 104 | 94.8 | 90.6 | 90.7 | 89.4 | 104 | 114 | 96 | 97.6 | 91.9 | 98.8 | 93.9 | 103 | 91.1 | 91.6 | 99.9 | 102 | 96.5 | 97.6 | 98.3 | 95.6 | 103 | 100 | 103 | 99.2 | > 10 | > 10 | > 10 | > 10 | > 10 | 0.4 | 0 | 0 | 0 | 0
CC1(C)CCC(C)(C)c2cc(C3(c4ccc5cc(C(=O)O)ccc5c4)SCCS3)ccc21 | 106 | 104 | 93.9 | 94.7 | 94.6 | 104 | 106 | 89.4 | 113 | 98.8 | 101 | 85.2 | 96.3 | 106 | 102 | 97.9 | 104 | 94.4 | 93.5 | 98.6 | 95.8 | 98.7 | 96.6 | 98 | 100 | > 10 | > 10 | > 10 | > 10 | > 10 | 0 | 0 | 0 | 0 | 0
CC1(C)Oc2ccc(C#N)cc2[C@H](N(Cc2ncc[nH]2)c2ccc(Cl)cc2)[C@H]1O | 106 | 101 | 98 | 103 | 89.4 | 103 | 104 | 105 | 102 | 99.2 | 107 | 109 | 98 | 103 | 114 | 101 | 103 | 103 | 103 | 96.8 | 93.8 | 93 | 95.2 | 97.2 | 102 | > 10 | > 10 | > 10 | > 10 | > 10 | 0 | 0 | 0 | 0 | 0
CCCn1c(=O)c(C)cn2nc(N)nc12 | 91.7 | 91.5 | 102 | 99.5 | 112 | 105 | 102 | 102 | 111 | 99 | 96.9 | 95 | 93.8 | 98.3 | 107 | 100 | 97.3 | 104 | 98.9 | 101 | 90.1 | 103 | 96 | 97.1 | 97.7 | > 10 | > 10 | > 10 | > 10 | > 10 | 0 | 0 | 0 | 0 | 0
